What was measured:
Assay in all cases: Histone demethylase assay, purified enzyme panel
Assay type in all cases: biochemical
Settings in all cases: Reference inhibitor
[1] = molecular target: T1, FBXL10 (KDM2B) (Homo sapiens, UniProt Q8NHM5)
T1 sequence (Q8NHM5 1-1336): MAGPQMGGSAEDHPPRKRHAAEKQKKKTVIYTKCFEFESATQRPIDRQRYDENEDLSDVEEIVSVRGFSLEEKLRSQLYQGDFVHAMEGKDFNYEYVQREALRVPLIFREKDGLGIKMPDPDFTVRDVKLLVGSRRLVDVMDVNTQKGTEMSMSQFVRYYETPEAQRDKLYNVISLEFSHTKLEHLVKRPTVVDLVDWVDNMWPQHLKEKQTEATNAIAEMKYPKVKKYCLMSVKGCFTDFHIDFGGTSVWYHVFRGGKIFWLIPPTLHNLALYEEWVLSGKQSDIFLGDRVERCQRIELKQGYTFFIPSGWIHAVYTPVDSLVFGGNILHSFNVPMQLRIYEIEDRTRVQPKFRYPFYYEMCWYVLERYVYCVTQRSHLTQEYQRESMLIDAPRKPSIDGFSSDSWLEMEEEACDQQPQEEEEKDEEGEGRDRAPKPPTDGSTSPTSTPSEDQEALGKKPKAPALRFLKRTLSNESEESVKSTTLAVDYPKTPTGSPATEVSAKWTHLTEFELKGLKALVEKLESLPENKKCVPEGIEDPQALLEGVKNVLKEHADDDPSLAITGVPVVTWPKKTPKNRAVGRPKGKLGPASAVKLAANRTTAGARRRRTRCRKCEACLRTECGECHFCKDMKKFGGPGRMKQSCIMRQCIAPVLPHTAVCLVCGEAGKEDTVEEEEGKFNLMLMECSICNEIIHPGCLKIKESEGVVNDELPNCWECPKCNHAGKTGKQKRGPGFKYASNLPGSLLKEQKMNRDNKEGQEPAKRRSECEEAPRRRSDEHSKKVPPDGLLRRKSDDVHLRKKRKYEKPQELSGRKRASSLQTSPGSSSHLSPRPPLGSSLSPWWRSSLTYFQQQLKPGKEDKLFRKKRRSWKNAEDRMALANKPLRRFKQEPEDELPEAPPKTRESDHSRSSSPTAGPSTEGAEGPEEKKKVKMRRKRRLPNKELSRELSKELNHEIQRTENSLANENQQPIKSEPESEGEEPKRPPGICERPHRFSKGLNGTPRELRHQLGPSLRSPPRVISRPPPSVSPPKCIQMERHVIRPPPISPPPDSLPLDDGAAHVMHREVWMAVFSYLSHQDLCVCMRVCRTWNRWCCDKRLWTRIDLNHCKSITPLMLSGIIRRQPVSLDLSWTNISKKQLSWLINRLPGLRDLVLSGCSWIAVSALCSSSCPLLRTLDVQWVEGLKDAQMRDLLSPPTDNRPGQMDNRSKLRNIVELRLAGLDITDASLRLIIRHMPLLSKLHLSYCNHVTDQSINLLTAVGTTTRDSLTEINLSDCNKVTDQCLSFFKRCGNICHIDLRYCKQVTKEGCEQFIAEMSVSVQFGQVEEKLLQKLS
Source text: (§1) Histone Demethylase Assay
(§2) To further examine the effects of 58B1 on histone demethylase, we screened a panel of purified histone demethylases was screened.

[2] = molecular target: T2, JMJD2C (KDM4C) (Homo sapiens, UniProt Q9H3R0)
T2 sequence (Q9H3R0 1-1056): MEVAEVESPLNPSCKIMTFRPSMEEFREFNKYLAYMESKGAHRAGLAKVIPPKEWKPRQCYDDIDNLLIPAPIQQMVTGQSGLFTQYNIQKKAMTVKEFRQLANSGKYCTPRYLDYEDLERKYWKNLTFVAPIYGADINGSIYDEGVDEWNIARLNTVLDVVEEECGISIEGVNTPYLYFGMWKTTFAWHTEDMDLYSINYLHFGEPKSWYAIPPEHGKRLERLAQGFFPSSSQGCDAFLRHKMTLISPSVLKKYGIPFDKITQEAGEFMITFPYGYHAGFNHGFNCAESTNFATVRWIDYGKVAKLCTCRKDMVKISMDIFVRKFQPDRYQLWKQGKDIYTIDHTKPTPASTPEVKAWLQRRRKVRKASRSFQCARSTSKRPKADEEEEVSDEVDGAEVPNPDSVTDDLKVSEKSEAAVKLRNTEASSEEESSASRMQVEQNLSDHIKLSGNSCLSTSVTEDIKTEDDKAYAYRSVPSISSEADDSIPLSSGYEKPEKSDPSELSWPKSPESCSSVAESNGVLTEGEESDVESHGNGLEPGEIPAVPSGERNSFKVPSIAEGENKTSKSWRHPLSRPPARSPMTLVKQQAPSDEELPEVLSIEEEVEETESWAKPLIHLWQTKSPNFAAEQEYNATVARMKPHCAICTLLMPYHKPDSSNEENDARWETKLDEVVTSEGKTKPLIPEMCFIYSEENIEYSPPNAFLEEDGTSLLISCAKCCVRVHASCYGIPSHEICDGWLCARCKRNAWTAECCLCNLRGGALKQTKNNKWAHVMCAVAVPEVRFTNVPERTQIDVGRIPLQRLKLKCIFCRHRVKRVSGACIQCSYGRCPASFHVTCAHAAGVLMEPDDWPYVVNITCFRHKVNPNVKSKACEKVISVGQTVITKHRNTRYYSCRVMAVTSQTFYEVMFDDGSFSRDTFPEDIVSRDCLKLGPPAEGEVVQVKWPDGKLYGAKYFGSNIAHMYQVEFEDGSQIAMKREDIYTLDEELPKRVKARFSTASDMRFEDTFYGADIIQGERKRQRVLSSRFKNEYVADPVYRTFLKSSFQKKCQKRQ
Source text: as §1, §2

[3] = molecular target: T3, JMJD2A (KDM4A) (Homo sapiens, UniProt O75164)
T3 sequence (O75164 1-1064): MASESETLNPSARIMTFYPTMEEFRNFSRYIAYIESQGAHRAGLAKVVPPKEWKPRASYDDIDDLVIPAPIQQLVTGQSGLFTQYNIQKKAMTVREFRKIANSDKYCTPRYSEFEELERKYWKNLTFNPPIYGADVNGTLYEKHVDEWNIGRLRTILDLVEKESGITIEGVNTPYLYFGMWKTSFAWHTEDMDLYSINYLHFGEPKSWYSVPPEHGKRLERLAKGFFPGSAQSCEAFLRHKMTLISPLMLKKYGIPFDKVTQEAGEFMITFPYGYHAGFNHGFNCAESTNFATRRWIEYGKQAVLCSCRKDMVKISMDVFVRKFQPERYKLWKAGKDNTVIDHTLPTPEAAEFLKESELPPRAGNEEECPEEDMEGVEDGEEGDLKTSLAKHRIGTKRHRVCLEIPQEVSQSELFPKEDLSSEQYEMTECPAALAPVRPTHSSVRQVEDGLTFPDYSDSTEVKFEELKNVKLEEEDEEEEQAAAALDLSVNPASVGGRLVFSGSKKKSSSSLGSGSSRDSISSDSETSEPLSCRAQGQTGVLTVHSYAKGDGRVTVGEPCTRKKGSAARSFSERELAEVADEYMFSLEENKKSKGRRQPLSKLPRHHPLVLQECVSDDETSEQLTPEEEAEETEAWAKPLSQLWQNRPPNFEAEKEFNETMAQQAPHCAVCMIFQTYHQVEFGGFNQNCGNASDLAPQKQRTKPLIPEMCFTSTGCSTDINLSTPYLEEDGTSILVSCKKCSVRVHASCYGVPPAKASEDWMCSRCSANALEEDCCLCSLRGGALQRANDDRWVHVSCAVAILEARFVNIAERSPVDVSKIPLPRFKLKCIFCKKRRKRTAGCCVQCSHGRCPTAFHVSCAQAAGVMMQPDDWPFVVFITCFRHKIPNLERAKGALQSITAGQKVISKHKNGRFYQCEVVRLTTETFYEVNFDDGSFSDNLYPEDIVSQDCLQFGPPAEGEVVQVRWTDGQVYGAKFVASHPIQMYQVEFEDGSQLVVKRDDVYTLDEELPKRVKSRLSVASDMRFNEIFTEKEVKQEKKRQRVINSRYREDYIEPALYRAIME
Source text: as §1, §2

O=C(O)c1ccnc(C(=O)O)c1 [2,4-Pyridine Dicarboxylic Acid, reference compound]
% Inhibition [1]: 99% | % Inhibition [2]: 100% | % Inhibition [3]: 100%

Reference: patent publication US12599597B2, “Substituted N-benzhydrylacetamide inhibitors of jumanji domain histone demethylases for the treatment of cancer” (University of Kentucky Research Foundation, priority 2020, dated 2026)
